One molecule from patent US10946019B2, “Nurr1:RXR activating compounds for simultaneous treatment of symptoms and pathology of Parkinson's disease” (priority 2015, dated 2021) can be followed below.

Structures are written as SMILES.

For one test, the target named is Nurr1:RXRα heterodimer (Homo sapiens (Human), UniProt P19793). The experiment in a line: Nurr1:RXRα-dependent luciferase reporter (DR5-TK-Luc) transactivation assay. Conditions: SHSY-5Y, luciferase. The class given is cell-based. (In a reporter assay the amount or activity of a reporter protein is the signal.)
Sequence of Nurr1:RXRα heterodimer (P19793 whole entry): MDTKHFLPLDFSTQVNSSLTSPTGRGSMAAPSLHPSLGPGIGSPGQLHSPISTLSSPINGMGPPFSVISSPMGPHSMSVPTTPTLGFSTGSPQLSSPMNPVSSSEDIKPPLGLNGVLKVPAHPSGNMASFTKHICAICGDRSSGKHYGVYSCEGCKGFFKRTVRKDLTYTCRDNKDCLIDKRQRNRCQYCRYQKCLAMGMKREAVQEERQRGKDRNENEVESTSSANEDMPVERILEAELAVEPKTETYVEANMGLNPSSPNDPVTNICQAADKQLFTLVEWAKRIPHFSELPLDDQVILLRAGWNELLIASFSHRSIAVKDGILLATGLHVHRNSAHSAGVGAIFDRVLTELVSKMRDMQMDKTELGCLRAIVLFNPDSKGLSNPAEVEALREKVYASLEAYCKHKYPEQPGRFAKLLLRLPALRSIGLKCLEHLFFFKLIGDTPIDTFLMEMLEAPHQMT
Sequence of Nurr1:RXRα heterodimer (P43354 whole entry partner): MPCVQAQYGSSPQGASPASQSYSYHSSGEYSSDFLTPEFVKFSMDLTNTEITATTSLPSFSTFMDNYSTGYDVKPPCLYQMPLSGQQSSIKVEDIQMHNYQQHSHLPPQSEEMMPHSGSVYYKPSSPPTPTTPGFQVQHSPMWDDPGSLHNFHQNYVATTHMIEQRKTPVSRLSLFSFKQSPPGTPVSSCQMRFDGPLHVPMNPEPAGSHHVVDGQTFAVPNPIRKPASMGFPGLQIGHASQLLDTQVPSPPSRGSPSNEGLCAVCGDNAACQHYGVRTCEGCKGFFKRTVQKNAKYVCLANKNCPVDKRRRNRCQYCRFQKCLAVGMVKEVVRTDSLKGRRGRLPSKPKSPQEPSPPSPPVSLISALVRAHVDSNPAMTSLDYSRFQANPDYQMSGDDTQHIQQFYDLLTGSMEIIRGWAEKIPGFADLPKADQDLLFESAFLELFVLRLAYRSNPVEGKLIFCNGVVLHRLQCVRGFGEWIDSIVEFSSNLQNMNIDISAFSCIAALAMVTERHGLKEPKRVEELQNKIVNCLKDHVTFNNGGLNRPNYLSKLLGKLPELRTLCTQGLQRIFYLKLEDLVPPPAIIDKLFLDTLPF
Test [1] concerns tyrosine hydroxylase (TH). The experiment in a line: Midbrain tyrosine hydroxylase expression by qPCR after administration to mice. Conditions: wt mice, single IP 10 mg/kg, within 4 hours. The class given is in vivo, mouse. The protocol:
To assess the neuroprotective effect of compound 3, this compound was dosed to wt mice intraperitoneally (IP) at 10 mg/kg injections of compound 3 in Ethanol:PG:Saline 10:30:60. After 2 h and 4 h animals (n=3 per time point) were sacrificed, and their brains obtained. After extraction c-jun and tyrosine hydroxylase (TH) levels in brain extract were determined by qPCR (FIG. 1E, 1F).
Given the role of Nurr1:RXRα activation in the transcriptional regulation of DA biosynthesis genes, we tested whether compound 3 could increase DA levels in wt and ASYN transgenic mice (Tofaris et al. J. Neurosci. 26:3942-3950, 2006), which display reduced striatal DA levels after reaching adulthood. […] Aiming to model PD based on human genetic data, we also tested whether compound 3 could increase DA levels in ASYN transgenic mice. A single IP injection of compound 3 (10 mg/kg) was able increase striatal DA (t test p=0.01069) and DA metabolite levels in ASYN transgenics as well (FIG. 75C) in comparison to mice receiving vehicle.
A general note: Quantitative PCR measures a nucleic acid by following its amplification.

In test [2] the test system is SHSY-5Y dopaminergic cells. The experiment in a line: MPP+ induced cell death, MTT assay. The format is cell-based, human. The protocol: MPP+, eradicates approximately 75% of the cells in 24 hours. […] Naive Neuro2A cells (FIG. 2A) or SH-SY5Y neuroblastoma cells FIG. 2B,C) were cultured in RPMI 1640, 10% fetal bovine serum at 37° C. Cells were pretreated with compound 3 for 12-24 h. Subsequent change of culture medium with addition of 0, 1, 2 and 4 mM MPP+ induced cell death. MTT assays determined the relative number of surviving cells FIG. 2D).
Such assays were performed, for instance, by adding compound 46 (12.5 μM) to human origin SHSY-5Y dopaminergic cells in which death was induced by the mitochondria complex I inhibitor MPP+ (1-methyl-4-phenylpyridinium), the active metabolite of MPTP (1-methyl-4-phenyl-1,2,3,6-tetrahydropyridine). […] Most of the MPP+-treated cells receiving vehicle died, while the few surviving cells remained attached to the plate but were rounded and had lost all projections. These morphological changes indicated impaired neuronal function. On the contrary, cells treated with compound 46 appeared healthy, flattened, well-attached, and their projections remained intact.
(§1) We examined the neuroprotective capability of Nurr1:RXRα heterodimer activation in SHSY-5Y cells where death was induced by either the oxidative stress related H2O2 or the mitochondria complex I inhibitor MPP+ (1-methyl-4-phenylpyridinium) (FIG. 72B). […] The protection conferred by compound 3 was Nurr1-dependent, since it was abrogated by knocking-down endogenous Nurr1 mRNA (FIGS. 1E and 72D). The neuroprotective effects of compound 3 extend to damage induced by the PD-associated mutation G2019S in the Leucine-Rich Repeat Kinase 2 (LRRK2) gene, the most common genetic defect associated with clinical PD (Tofaris et al. J. Neurosci. 26:3942-3950, 2006). Rat cortical neurons, co-transfected with CMV-GFP for identification, and CMVLRRK2-G2019S cDNAs show increased apoptosis as assessed by DAPI staining, compared to control neurons co-transfected with a LRRK2 wt cDNA.
Background: Tetrazolium dyes change colour on reduction, which living cells bring about.

The test system of the next test is SHSY-5Y cells. Description: H2O2 induced cell death, MTT assay. The format is cell-based, human. Conditions: 12.5 μM, varying concentrations of H2O2.
Text: FIGS. 72A-72R show the ability of compound 3 to induce the expression of genes involved in dopamine biosynthesis as well as the neuroprotective effects of compound 3 in cell lines and patient iPCs-derived dopaminergic neurons. […] FIGS. 72F, 72G, 72H, and 72I show representative confocal microscopy images of the compound 3-treated primary rat cortical neurons. […] FIG. 72M-72R show the effects of compound 3 on PD patient iPS cell-derived dopaminergic neurons with the LRRK2-G2019S mutation or corrected mutation (GC). Compound 3 treatment rescues neurite length (M, expressed in […]), number (N) and branching (O) phenotypes. Representative images show staining with TuJ, TH and DAPI (FIGS. 72P, 72Q, and 72R).
as §1, with “The neuroprotective effects of compound 3 extend to damage induced by the PD-associated mutation G2019S in the Leucine-Rich Repeat Kinase 2 (LRRK2) gene, the most common genetic defect associated with clinical PD (Tofaris et al. J. Neurosci. 26:3942-3950, 2006).” left out

In the next test the test system is C57/BL6 mice. The experiment in a line: Porsolt forced swim test after chronic mild stress. The format is in vivo, mouse. Conditions: CMS mice, 2×10 mg/kg IP spaced 2 hours apart, 4 hours after last injection. The protocol:
The chronic mild stress (CMS) procedure was applied semi randomly to each mouse and consisted of a variety of unpredictable mild environmental, social and physical stressors, including confinement in a small tube (1 hours), an empty cage without sawdust (15 hours), water and food deprivation (15 hours), food restriction (approximately 50 mg of food pellets, 3 hours), cage tilted at 45° (1-3 hours), damp sawdust (approximately 200 ml of water per 100 g of sawdust, 3 hours), paired housing in damp sawdust (18 hours), reversal of the light/dark cycle, 2-hour light/dark succession every 30 minutes, as well as light (15-17 hours) and dark (4-6 hours). Compound 3 (2×10 mg/kg spaced 2 hours apart) or vehicle control (Ethanol:PG:Saline, 10:30:60), was administered IP to mice. 4 hours after the last injection, mice were evaluated in the Porsolt forced swim test. […] Recorded behaviors for “floating” (the mouse is completely still in the water, except for isolated movements to right itself) and “swimming” (movement of all four legs with body aligned horizontally in the water) were measured (in seconds) for each mouse.

The test system of test [3] is C57BL/6 mice exposed to MPTP. Description: Neuroprotection in the acute MPTP mouse model. The format is in vivo.
The next test concerns AAV-ASYN injected mice. The experiment in a line: Neuroprotection in the AAV-ASYN mouse model. Conditions: 10 mg/kg every 12 h for 2 weeks, vs vehicle. The format is in vivo. The protocol: Because the predictive validity of toxin-based mouse PD models for neuroprotection in humans is questionable, we proceeded to test the effect of compound 3 in a mouse model, where AAV viruses overexpressing wt alpha-synuclein (AAV-ASYN) under the chicken beta-actin promoter were unilaterally injected, combined with contralateral injections of (AAV-GFP). The same compound 3 (10 mg/kg every 12 h for 2 weeks) or vehicle treatment regimen was followed as in the toxin models.

Description for Nurr1:RXRα heterodimer: The in vitro transactivation assay determined the capacity of the compounds of the invention to activate the Nurr1:RXR heterodimers. Naive SHSY-5Y cells were transiently co-transfected, using Lipofectamine 2000 (Invitrogen), with a plasmid expressing the human receptor Nurr1, a plasmid expressing the RXR human receptor (RXRα or RXRγ receptor) and a reporter plasmid DR5-TK-Luc. […] After incubation overnight, the expression of luciferase was measured (FIG. 1A).

Regarding `C=CCc1c(N(C)c2ccc(C(=O)O)cc2)nc(-c2ccccc2)nc1C(F)(F)F` [Example 3, 4-((5-allyl-2-phenyl-6-(trifluoromethyl)pyrimidin-4-yl)(methyl)amino)benzoic acid], at Nurr1:RXRα heterodimer, the “activation of Nurr1:RXRα heterodimers” value is on record as “activated”. Also, in test [1], the “TH gene expression in the midbrain” value is reported as “increased”. Besides, the “cell survival against MPP+” value in test [2] (12.5 μM, varying concentrations of MPP+) is listed as “significantly increased cell survival”. In test [2] (pretreated 12-24 h, MPP+ 24 hours, MTT), the “number of surviving cells after MPP+” value was “approximately doubles”. Besides, in the test with SHSY-5Y cells, the “cell survival against H2O2” value is on record as “significantly increased cell survival”. Also, in the test with C57/BL6 mice, the “decrease of floating time” value came out at 61.48% and the “increase of swimming time” value is listed as 31.7%. Further, in test [3] (10 mg/kg IP every 12 hours), the “remaining SN axonal terminals in the striatum” value is “doubling”. Also, the “increase of TH(+) midbrain neuron survival” value in test [3] (10 mg/kg IP every 12 hours for 6 days, stereology) amounted to 31%. Moreover, in test [3] (10 mg/kg IP every 12 hours for 6 days, vs vehicle), the “improvement of motor coordination (accelerating rotarod)” value was greater than 100%. Besides, the “neuroprotection with once-a-day injection regimen” value in test [3] (20 mg/kg once a day) is “ineffective”. Further, the “increase in number of surviving neuronal bodies (SNpc)” value in test [3] (C57/BL6, IP 10 mg/kg every 12 hours for 8 days) was determined as 33.5%. Further, the “number of NeuN(+) midbrain neurons” value in the test with AAV-ASYN injected mice is recorded as “increased”. In addition, the “increase of TH(+) midbrain neurons” value in the test on AAV-ASYN injected mice (listed as Compound 3) came out at 48%. Further, in the test on AAV-ASYN injected mice (listed as compound 3), the “increase of TH(+) midbrain neurons” value was “about 47%”.
